Data from PubChem BioAssay AID2305 (GlaxoSmithKline (GSK), 2010).

System: P. falciparum 3D7 growth, pLDH absorbance
Experiment: P. falciparum 3D7 growth inhibition, dose response, strain 3D7 (AID 2305)

| SMILES | IC50 [nM] |
| --- | --- |
| Cc1cc(C(=O)Nc2ccc3c(c2)CCN3C2CCN(Cc3ccc(F)cc3Cl)C2)no1 (centres undefined) | 190 |
| CC(CO)(CO)NCc1cc2c3ccccc3c(CNC(C)(CO)CO)cc2c2ccccc12 | 720 |
| O=C(Nc1cccc(-c2csc(-c3nc4ccccc4[nH]3)c2)c1)c1cccnc1 | 230 |
| OCC1CCN(Cc2ccc(-c3ccc(-c4nc5ccccc5[nH]4)cc3)cc2)CC1 | 900 |
| COc1cccc(C2=CC(C)(C)Oc3cc(OCCN(C)C)ccc32)c1 | 790 |
| CCc1ccccc1N1CCN(CCCC(=O)c2ccc(NC(=O)c3ccc(Cl)cc3)cc2)CC1 | 1310 |
| Cc1cc(S(=O)(=O)N2CCCCC(c3ccc(C(F)(F)F)cc3)=N2)c(Cl)cc1Cl | 500 |
| COc1ccc2nc(C)cc(NN=Cc3cccc(F)c3)c2c1 | 290 |
| CC(CO)(CO)NCc1cc2ccc3ccsc3c2c2ccccc12 | 230 |
| CCOC(=O)c1ccc(N2CCCCC2)c(NC(=O)C(Cl)(Cl)Cl)c1 | 850 |
| COc1ccc(-c2nc(NC(=O)CS(=O)(=O)c3ccccc3)sc2C)cc1 | 600 |
| O=C(Nc1ccc(Br)cc1)N(CCN1CCOCC1)CC(O)COCc1ccc(F)cc1 (centres undefined) | 1040 |
| OC1CCCN(Cc2ccc(-c3cccc(-c4nc5ccc(F)cc5[nH]4)c3)cc2)C1 (centres undefined) | 870 |
| Cc1nc(-c2ccc(-c3ccc(C(=O)Nc4ccc5c(c4)C4(CCNCC4)CO5)cc3)c(C)c2)no1 | 860 |
| O=C(Nc1ccc(Cn2ncc(N3CCCNCC3)c(Cl)c2=O)cc1)Nc1cc(C(F)(F)F)cc(C(F)(F)F)c1 | 590 |
| CCOc1ccc2nc3cc(N)ccc3c(N)c2c1 | 530 |
| COc1ccccc1CNC(=O)c1ccc(N2CCN(c3ccncc3)CC2)cn1 | 1360 |
| CCCc1ccc(N2C(N)=NC(N)=NC2(C)C)cc1 | 30 |
| CC1(C)CC(=O)c2c(O)cc(OCc3ccncc3)cc2O1 | 1040 |
| FC(F)(F)c1cccc(CNCC2CCN(CC3CCCCC3)CC2)c1 | 400 |
| CC(C)=C(C(=O)OCc1ccccc1)N1C(=O)[C@@H](NC(c2ccccc2)(c2ccccc2)c2ccccc2)[C@H]1[S@@](=O)CC(=O)OC(C)(C)C | 1020 |
| CC(Cc1ccc(SC(C)C)cc1)NCC(O)c1cccc(Cl)c1 (centres undefined) | 830 |
| CC(=O)Nc1ccc(S(=O)(=O)NC2=NC(C)(C)N(OCc3ccc(Cl)c(Cl)c3)C(N)=N2)cc1 | 30 |
| CC(C)CNC(=O)c1cncc(-c2ccc(CNC3Cc4ccccc4C3)cc2)c1 | 700 |
| CO/C(=C\C=C\c1cc2cc(Cl)c(Cl)cc2[nH]1)C(=O)NCCCN1CCN(c2cccc(CCO)c2)CC1 | 720 |

| SMILES | IC50 [nM] |
| --- | --- |
| O=C(Nc1ccc(F)cc1F)NC1CCN(c2ccnc3cc(Cl)ccc23)C1 (centres undefined) | 250 |
| COc1cc(Cc2cnc(N)nc2N)cc(OC)c1OCCCCCN1C(=O)c2ccccc2C1=O | 620 |
| COc1ccc(CN(C)CCCOc2ccc(NC(=O)c3cccc4c(=O)c5cccc(F)c5[nH]c34)cc2)cc1OC | 640 |
| O=C(/C=C/c1ccc(Cl)c(Cl)c1)NCCCCCN1CCCN(C(=O)Nc2cccc(C(F)(F)F)c2)CC1 | 870 |
| CC(CNc1ccnc(Nc2ccc3[nH]c(=O)[nH]c3c2)n1)c1ccccc1 (centres undefined) | 700 |
| O=C(NCCCc1ccccc1)c1csc(C2CCCN(C(=O)c3ccc(O)c(-c4cccc5ccccc45)c3)C2)n1 (centres undefined) | 970 |
| NS(=O)(=O)c1cccc(-c2ccc3ncc(N4CCOCC4)nc3c2)c1 | 990 |
| CC1CN(Cc2ccc(-c3ccc(-c4nc5ccc(F)cc5[nH]4)s3)cc2)CC(C)O1 (centres undefined) | 880 |
| O=C1C(c2ccccc2)=C(Nc2cccc([N+](=O)[O-])c2)c2ccccc21 | 890 |
| COc1ccc2[nH]cc(C3CCN(CCCCCNC(=O)c4ccc(-c5ccccc5)cc4)CC3)c2c1 | 800 |
| CCCCOc1ccc(C(=O)C(CCC(CNC(C)(C)C)C(=O)c2ccc(OCCCC)cc2)CNC(C)(C)C)cc1 (centres undefined) | 1020 |
| Cc1nnsc1C(=O)Nc1ccc(-c2cccc(-c3nc4ccc(C(F)(F)F)cc4[nH]3)c2)cc1 | 840 |
| CC(C)(CNC(=O)[C@H]1CCCN1)c1nc(-c2ccc(Cl)c(O)c2)c(-c2ccncc2)[nH]1 | 1270 |
| Oc1ccc(CCNCc2ccc(OCc3ccccc3)c(OCc3ccccc3)c2)cc1 | 1510 |
| CCN(CC)C(=NC(N)=NCCCCCCN=C(N)N=C(Nc1ccc(Cl)cc1)N(CC)CC)Nc1ccc(Cl)cc1 | 930 |
| c1cc(CN2CCCCC2)cc(-c2ccc(-c3nc4ccccc4[nH]3)s2)c1 | 870 |
| Cc1nc2nc(N)nc(N)c2c(C)c1Cc1ccc(C(N)=O)cc1 | 530 |
| CC(=O)Nc1nc(C(=O)Nc2ccc(-c3ccc(-c4nc5ccc(F)cc5[nH]4)cc3)cc2)cs1 | 460 |
| CCCc1ccc(Cc2cnc3nc(N)nc(N)c3c2C)cc1 | 280 |
| CCc1cc(Cc2cnc(N)nc2N)cc(CC)c1OC | 1130 |
| O=C(/C=C/c1ccc(Cl)c(Cl)c1)NCCCCCN1CC[C@H](NC(=O)/C=C/c2ccccc2)C1 | 1000 |
| CCOc1ccc(-c2nonc2NC(=O)c2ccccc2Cl)cc1OCC | 740 |
| COc1cccc(O)c1CNCC(O)c1cccc(C(F)(F)F)c1 (centres undefined) | 950 |
| Cc1ccc2[nH]c(C3CCCNC3)c(-c3ccncc3)c2c1 (centres undefined) | 1230 |
